13 molecules from PubChem BioAssay (NCI) can be followed below.

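Exposure lasted 48 hours, with cells grown in 96-well plates and compounds tested at five concentrations. At the TGI there is no net growth.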

Some test systems named below: ACHN renal; CAKI-1 renal; DU-145 prostate; OVCAR-3 ovarian; RPMI-8226 leukemia; RXF 393 renal; SF-295 CNS; SF-539 CNS; SK-MEL-2 melanoma; SNB-75 CNS.
Common to all, as to assay: DTP human tumour cell line panel, 48 h

Consider `N#Cc1c(-c2ccc(Cl)cc2)[nH]c(=O)n(C2OC(CO)C(O)C(O)C2O)c1=O` (stereo not drawn), for which the TGI in the assay on ACHN renal, with CAKI-1 renal, in the assay on DU-145 prostate, in the assay with OVCAR-3 ovarian, with RPMI-8226 leukemia and with RXF 393 renal was more than 100 µM in each case. The TGI in the assay with SF-295 CNS, with SF-539 CNS, in the assay with SK-MEL-2 melanoma and in the assay on SNB-75 CNS was more than 100 µM each time.

Take `Cc1ccc(S(=O)(=O)Oc2nc3ccccc3nc2OS(=O)(=O)c2ccc(C)cc2)cc1`: the total growth inhibition concentration (TGI) with ACHN renal is more than 100 µM; in the assay on CAKI-1 renal, 82.4 µM; in the assay on DU-145 prostate it was more than 100 µM; with OVCAR-3 ovarian, more than 100 µM; with RPMI-8226 leukemia, more than 100 µM; in the assay on RXF 393 renal, more than 100 µM. Moreover, the concentration for total growth inhibition (TGI) with SF-295 CNS, in the assay with SF-539 CNS, in the assay with SK-MEL-2 melanoma and in the assay with SNB-75 CNS was more than 100 µM each time.

Take `O=c1ccn(COC(COCc2ccccc2)COCc2ccccc2)c(=O)[nH]1`: the TGI in the assay on CAKI-1 renal, in the assay with DU-145 prostate, in the assay on OVCAR-3 ovarian, in the assay on RPMI-8226 leukemia, in the assay with RXF 393 renal and in the assay on SF-295 CNS was more than 100 µM in each case. The total growth inhibition concentration (TGI) in the assay on SK-MEL-2 melanoma and in the assay on SNB-75 CNS was more than 100 µM each time.

Regarding `O=C(CN1CCOCC1)c1ccc2c(c1)oc(=O)n2CCN1CCOCC1`, the TGI in the assay on CAKI-1 renal, with DU-145 prostate, in the assay on OVCAR-3 ovarian, with RPMI-8226 leukemia, with RXF 393 renal and with SF-295 CNS was more than 100 µM each time. The TGI in the assay on SF-539 CNS, in the assay on SK-MEL-2 melanoma and in the assay with SNB-75 CNS was more than 100 µM in each case.

Consider `CC[C@@]1(C)CCC2c3ccc(O)cc3CC[C@H]2C1C` (stereo partly drawn), for which the concentration for total growth inhibition (TGI) with ACHN renal was found to be 32.7 µM; in the assay with CAKI-1 renal, 35.7 µM; with DU-145 prostate it was 30.4 µM; with OVCAR-3 ovarian, 37 µM; in the assay with RPMI-8226 leukemia, 39.5 µM; with RXF 393 renal, 26 µM. Further, the total growth inhibition concentration (TGI) in the assay on SF-295 CNS is 34.6 µM; in the assay with SF-539 CNS, 35.4 µM; in the assay on SK-MEL-2 melanoma, 32.8 µM; in the assay on SNB-75 CNS it was 37.2 µM.

`CCC(=O)Nc1ccc(NC(C#N)c2cccc(Oc3ccccc3)c2)cc1` (stereo not drawn): the concentration for total growth inhibition (TGI) was more than 100 µM in the assay with ACHN renal; more than 100 µM in the assay with CAKI-1 renal; more than 100 µM in the assay on DU-145 prostate; more than 100 µM in the assay on OVCAR-3 ovarian; 66.9 µM with RPMI-8226 leukemia; more than 100 µM in the assay on RXF 393 renal. For the same molecule, the total growth inhibition concentration (TGI) is more than 100 µM in the assay on SF-295 CNS, 74.2 µM with SF-539 CNS, 94.6 µM in the assay on SK-MEL-2 melanoma and more than 100 µM in the assay on SNB-75 CNS.

With `O=c1[nH]nc(-c2ccccc2)n1/N=C/c1cccs1`, the TGI with ACHN renal was more than 100 µM; with CAKI-1 renal, more than 100 µM; in the assay with DU-145 prostate, more than 100 µM; in the assay with OVCAR-3 ovarian, more than 100 µM; with RPMI-8226 leukemia, more than 100 µM; with RXF 393 renal it was 85.2 µM. The TGI in the assay with SF-295 CNS, in the assay on SF-539 CNS, with SK-MEL-2 melanoma and with SNB-75 CNS was more than 100 µM throughout.

Consider `COc1ccc(CCCNC(=O)c2cc(OC)c(OC)cc2CCO)cc1OC`, for which the total growth inhibition concentration (TGI) in the assay with ACHN renal, in the assay with CAKI-1 renal, in the assay on DU-145 prostate, in the assay with OVCAR-3 ovarian, with RPMI-8226 leukemia and in the assay on RXF 393 renal was more than 100 µM throughout. Besides, the concentration for total growth inhibition (TGI) in the assay on SF-295 CNS, in the assay with SF-539 CNS, with SK-MEL-2 melanoma and in the assay on SNB-75 CNS was more than 100 µM throughout.

`COc1ccc(N2C(=O)C3c4[nH]c5ccc(Br)cc5c4C4CCC(C(C)(C)C)CC4C3C2=O)cc1` (stereo not drawn): the total growth inhibition concentration (TGI) with ACHN renal, in the assay on CAKI-1 renal, in the assay with DU-145 prostate, in the assay on OVCAR-3 ovarian, in the assay on RPMI-8226 leukemia and with RXF 393 renal was more than 100 µM throughout. Besides, the TGI in the assay with SF-295 CNS, with SF-539 CNS and in the assay with SK-MEL-2 melanoma was more than 100 µM in each case.

On to `CC1SCc2nc3ccccc3n21` (stereo not drawn), for which the TGI with ACHN renal, in the assay on CAKI-1 renal, with DU-145 prostate, in the assay on OVCAR-3 ovarian, in the assay on RPMI-8226 leukemia and in the assay with RXF 393 renal was more than 100 µM each time. Moreover, the TGI in the assay on SF-295 CNS is more than 100 µM; with SF-539 CNS it was more than 100 µM; with SK-MEL-2 melanoma, more than 100 µM; with SNB-75 CNS, 83.3 µM.

As for `CCOC(=O)C(Cc1ccc(OC(=O)c2ccc(OC)cc2)cc1)NC(=O)C(F)(F)F` (stereo not drawn), the TGI with ACHN renal was more than 100 µM; in the assay on CAKI-1 renal, more than 100 µM; with DU-145 prostate, more than 100 µM; with OVCAR-3 ovarian, more than 100 µM; with RPMI-8226 leukemia, more than 100 µM; in the assay with RXF 393 renal it was 73.2 µM. For the same molecule, the TGI was more than 100 µM with SF-295 CNS, more than 100 µM with SF-539 CNS, more than 100 µM with SK-MEL-2 melanoma and 46.5 µM in the assay with SNB-75 CNS.

As for `COC(=O)C1(C#N)C(C)(C)N=C(c2ccccc2)C12CCCCC2` (stereo not drawn), the TGI with CAKI-1 renal, in the assay on DU-145 prostate, in the assay on OVCAR-3 ovarian, in the assay on RPMI-8226 leukemia, in the assay on RXF 393 renal and in the assay with SF-295 CNS was more than 100 µM in each case. The TGI in the assay on SF-539 CNS and in the assay on SK-MEL-2 melanoma was more than 100 µM throughout.

As for `COc1cc(/C=N/n2c(-c3ccccc3)nn(C(C)=O)c2=O)cc(OC)c1OC`, the total growth inhibition concentration (TGI) with ACHN renal was more than 64.6 µM; in the assay on CAKI-1 renal it was more than 100 µM; in the assay with DU-145 prostate, more than 89.1 µM; with RPMI-8226 leukemia, 9.59 µM; with RXF 393 renal, more than 88.4 µM; in the assay on SF-295 CNS it was 26.9 µM. Also, the results for the TGI in the assay with SF-539 CNS, with SK-MEL-2 melanoma and in the assay on SNB-75 CNS were 8.54 µM, 18.4 µM and 21.1 µM, respectively.
